Converted amounts (≈) assume the structure as drawn.
system: Mycobacterium tuberculosis; test: Antituberculosis activity against Mycobacterium tuberculosis H37Rv by microbroth dilution assay; assay type: functional; details: not given

Compound	MIC
CC(C)=CCC/C(C)=C/CNCCNC1C2CC3CC(C2)CC1C3.Cl.Cl (centres undefined)	0.6 µM
CC(C)=CCC/C(C)=C/CNCCNC1C2CC3CC(C2)CC1(O)C3 (centres undefined)	0.6 µM (≈ 0.208 µg/mL)
CC(C)=CCC/C(C)=C/CNCCNC1C2CC3CC1CC(F)(C3)C2 (centres undefined)	0.6 µM (≈ 0.209 µg/mL)
CC(C)=CCC/C(C)=C/C(C)NCCNC1C2CC3CC(C2)CC1C3 (centres undefined)	1.2 µM (≈ 0.414 µg/mL)
CCC(/C=C(\C)CCC=C(C)C)NCCNC1C2CC3CC(C2)CC1C3 (centres undefined)	1.2 µM (≈ 0.43 µg/mL)
CC(C)=CCC/C(C)=C/C(Cc1ccccc1)NCCNC1C2CC3CC(C2)CC1C3 (centres undefined)	1 µM (≈ 0.421 µg/mL)
COC12CC3CC(C1)C(NCCNC/C=C(\C)CCC=C(C)C)C(C3)C2 (centres undefined)	1.7 µM (≈ 0.613 µg/mL)
CC(C)=CCC/C(C)=C/CNCCNC1C2CC3CC(C2)CC1(F)C3 (centres undefined)	0.3 µM (≈ 0.105 µg/mL)
CC(C)=CCC/C(C)=C/CNCCNC1C2CC3CC1CC(O)(C3)C2 (centres undefined)	8.6 µM (≈ 2.98 µg/mL)
COC12CC3CC(CC(C3)C1NCCNC/C=C(\C)CCC=C(C)C)C2 (centres undefined)	0.5 µM (≈ 0.18 µg/mL)
CC(C)=CCC/C(C)=C/C(Cc1ccc(F)cc1)NCCNC1C2CC3CC(C2)CC1C3 (centres undefined)	3 µM (≈ 1.32 µg/mL)
CC(C)=CCC/C(C)=C/C(Cc1ccc(OC(F)(F)F)cc1)NCCNC1C2CC3CC(C2)CC1C3 (centres undefined)	5.2 µM (≈ 2.62 µg/mL)

system: not listed separately; test: Oral bioavailability in rat; assay type: ADME, organism-based; details: in vivo

Compound	bioavailability
CC(C)=CCC/C(C)=C/CNCCNC1C2CC3CC(C2)CC1C3.Cl.Cl (centres undefined)	12%

system: not listed separately; test: Oral bioavailability in dog; assay type: ADME, organism-based, Canis lupus familiaris; details: in vivo

Compound	bioavailability
CC(C)=CCC/C(C)=C/CNCCNC1C2CC3CC(C2)CC1C3.Cl.Cl (centres undefined)	3.8%

Reference: ChEMBL document CHEMBL1155983, “Synthesis of novel [1,2]-diamines with antituberculosis activity” (Bioorg Med Chem Lett, 2009)
